# From PMC11059093 (Frontiers in Chemistry, 2024)
# What was measured:
# [1] = Oxygen radical absorbance capacity (ORAC-FL) assay; conditions: compounds 5 µM, mean of n = 3 ± SD
# Protocol: The solution of 2,2′-azobis- (amidinopropane) dihydrochloride (AAPH) was prepared to a final concentration of 40 mM. The mixture of the tested compounds (20 µL) and FL (120 μL; 70 nM) was pre-incubated for 10 min at 37°C, 60 µL of the AAPH solution was added. The fluorescence was recorded every minute for 120 min (excitation, 485 nm; emission, 520 nm). The antioxidant curves (fluorescence versus time) were normalized to the curve of the blank.
# Where f0 is the initial fluorescence reading at 0 min and fi is the fluorescence reading at time i. The net AUC was calculated by the expression: AUCsample—AUCblank. Regression equations between net AUC and Trolox concentration were calculated. ORAC-FL value of the tested compound expressed as Trolox equivalents.
# [2] = Metal-chelating study by UV spectrophotometry; type: physicochemical; conditions: for Metal-chelating property: 50 µM compound with Cu^2+, Zn^2+, Fe^2+ or Fe^3+ (50 µM), HEPES pH 7.4, UV-vis; for Inflection point, concentration ratio of Cu^2+ to compound: 50 µM compound, 0–100 µM copper ion, inflection point method
# Protocol: To further evaluate multi-target anti-AD potential, the metal-chelating properties of 6b and 6c were determined by UV spectrophotometry ([Geng et al., 2012]; [Lu et al., 2013]; [Hu et al., 2019]). […] While co-incubated with Fe^3+ or Fe^2+, the intensity at 255 nm was in different degrees decreased. The same result occurred for 6c. […] Next, the chelation ratios of 6b and 6c to Cu^2+ were measured and calculated using the inflection point method (Figures 3B, D). The inflection point appears when the concentration ratio of compound Cu^2+ to 6b or 6c is 0.5, so it can be inferred that the chelation ratio of compound 6b and 6c to Cu^2+ is 2:1.
# 6b and 6c (50 µM) were incubated with CuSO4, FeSO4, FeCl3, or ZnCl2 (50 µM) in buffer (20 mM HEPES, 150 mM NaCl, pH 7.4) for 30 min, and the absorption spectras were recorded at room temperature. For the stoichiometry of the compound–Cu^2+ complex, a fixed amount of 6b and 6c (50 µM) was mixed with growing amounts of copper ion (0–100 µM), and the difference UV−vis spectra were examined to investigate the ratio of ligand/metal in the complex.
# [3] = target: T1, Aβ1–42 (Homo sapiens, UniProt P05067); assay: Inhibition of self-mediated Aβ1–42 aggregation, thioflavin T fluorescence assay; type: biochemical; conditions: ThT assay, compounds 20 μM, mean of n = 3 ± SD
# T1 construct: Aβ1−42 (Sigma-Aldrich) was dissolved in NH4OH (1% v/v) to get a stock solution; purchased Sigma-Aldrich
# [4] = system: SH-SY5Y; assay: Cytotoxicity assay on SH-SY5Y cells; type: cell-based
# Protocol: (§1) To further investigate the bioactivity of the compounds, cytotoxicity was evaluated on SH-SY5Y and BV2 cell lines (Figures 2A, B).
# (§2) FIGURE 2 Cytotoxicity assay of 6b and 6c on SH-SY5Y (A) and BV2 (B). Protective effect of 6b and 6c against H2O2 induced SH-SY5Y oxidative stress (C).
# [5] = system: BV2; assay: Cytotoxicity assay on BV2 cells; type: cell-based; conditions: BV2, 20 μM
# Protocol: as §1, §2
# [6] = Parallel artificial membrane permeability assay for the blood-brain barrier (PAMPA-BBB); conditions: for Papp / P e: PAMPA; for pred (predicted BBB permeation): classified from PAMPA-BBB Pe; for P e: can cross the blood-brain barrier
# [7] = system: SH-SY5Y; assay: Hydrogen peroxide induced oxidative stress (ROS, DCFH-DA probe) in SH-SY5Y cells; type: cell-based; conditions: SH-SY5Y treated with 400 μM hydrogen peroxide for 12 h
# Text: as §2
# The effect of 6b and 6c on the oxidative stress of SH-SY5H cells induced by hydrogen peroxide was investigated using DCFH-DA as the fluorescent probe ([Xu et al., 2021]).
# [8] = in vitro; conditions: PAMPA
# [9] = target: T2, Cu^2+-induced Aβ1-42 aggregation (Homo sapiens, UniProt P05067); assay: Cu^2+-induced Aβ1-42 aggregation, thioflavin T fluorometric detection; type: biochemical; conditions: ThT, compound stock 150 μM; for Disaggregation of Cu^2+-induced Aβ1-42 aggregation: Figure 4A; for Inhibition of Cu^2+-induced Aβ1-42 aggregation: Figure 4B
# T2 construct: Aβ1-42 (Sigma-Aldrich A9810, 20 μM) was dissolved in HEPES buffer; purchased Sigma-Aldrich A9810
# Protocol: To further detect the ability of compounds 6b, CQ and MT to disaggregate or inhibit the Cu^2+-induced Aβ1-42 aggregation, we conducted thioflavin T fluorometric detection ([Hu et al., 2019]).
# Detection of the compounds for disaggregated and inhibitory effects on Cu^2+ induced Aβ1-42 aggregation. Aβ1-42 (Sigma-Aldrich A9810, 20 μM) was dissolved in HEPES buffer (pH = 6.6, containing 1% ammonium hydroxide). 10 μL of Aβ1-42 was previously incubated with or without Cu^2+ at 37°C for 3 days to pre-fibrillation. 10 μL of 6b, CQ, and MT (150 μM, in DMSO) were incubated before or after the pre-fibrillation of Aβ1-42 at 37°C for 1 day. After incubation, 170 μL of thioflavin T (5 μM, in 50 mM glycine-NaOH buffer) was added to mix well. After incubation for 5 min, the Aβ1-42 aggregation was detected by Microplate Reader (HITACHI, F-4700) with excitation/emission at 450/485 nm.
# [10] = 13 commercial drugs for validation, literature value; ref Bibl a; cited from earlier work
# T1 sequence (P05067 672-713 limits assumed): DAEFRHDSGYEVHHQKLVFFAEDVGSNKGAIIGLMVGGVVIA
# T2 sequence (P05067 672-713 limits assumed): as above
inhibition at 20 µM [3] [%],Papp [6] [×10⁻⁶ cm/s],SMILES,ORAC [1] [Trolox equivalents],pred (predicted BBB permeation) [6],P e [6],other results
34.9 ± 2.91,1.35 ± 0.25,"COc1ccc2[nH]cc(CC(=O)NCc3ccc(O)c4ncccc34)c2c1 [Compound 11b, N-((8-hydroxyquinolin-5-yl)methyl)-2-(5-methoxy-1H-indol-3-yl)acetamide]",3.58 ± 0.12,CNS− (Compounds of low BBB permeation (CNS -) Pe<1.8),–,–
19.7 ± 2.06,1.12 ± 0.42,"COc1ccc2[nH]cc(CCNC(=O)c3ccc4cccnc4c3O)c2c1 [Compound 13b, 8-hydroxy-N-(2-(5-methoxy-1H-indol-3-yl)ethyl)quinoline-7-carboxamide]",1.33 ± 0.02,CNS− (Compounds of low BBB permeation (CNS -) Pe<1.8),–,–
44.7 ± 5.18,2.82 ± 0.42,"O=C(Cc1c[nH]c2ccccc12)NCc1ccc(O)c2ncccc12 [Compound 11a, N-((8-hydroxyquinolin-5-yl)methyl)-2-(1H-indol-3-yl)acetamide]",2.91 ± 0.16,CNS± (Compounds of uncertain BBB permeation (CNS+/ -) 4.7>Pe>1.8),–,–
47 ± 6.25,3.98 ± 0.45,"O=C(NCCc1c[nH]c2ccccc12)c1ccc2cccnc2c1O [Compound 13a, N-(2-(1H-indol-3-yl)ethyl)-8-hydroxyquinoline-7-carboxamide]",1.06 ± 0.07,CNS± (Compounds of uncertain BBB permeation (CNS+/ -) 4.7>Pe>1.8),–,–
38.6 ± 5.12,2.65 ± 0.46,"O=C(NCc1c[nH]c2ccccc12)c1ccc2cccnc2c1O [Compound 13c, N-((1H-indol-3-yl)methyl) -8-hydroxyquinoline-7-carboxamide]",0.94 ± 0.02,CNS± (Compounds of uncertain BBB permeation (CNS+/ -) 4.7>Pe>1.8),–,–

# The next lines start with the compound.
SMILES,inhibition at 20 µM [3] [%],Papp [6] [×10⁻⁶ cm/s],ORAC [1] [Trolox equivalents],pred (predicted BBB permeation) [6],P e [6],other results
"O=C(NCCc1c[nH]c2ccc(O)cc12)c1ccc2cccc(O)c2n1 [Compound 6c, 8-hydroxy-N-(2-(5-hydroxy-1H-indol-3-yl)ethyl)quinoline-2-carboxamide]",40.3 ± 2.09,2.96 ± 0.58,3.23 ± 0.02,CNS± (Compounds of uncertain BBB permeation (CNS+/ -) 4.7>Pe>1.8),–,"Metal-chelating property [2]: possess metal-chelating properties; Inflection point, concentration ratio of Cu^2+ to compound [2]: 0.5; Cytotoxicity ([4]; 5 μM): no cytotoxicity; Cytotoxicity ([4]; 10 μM): slight toxicity; Cytotoxicity [5]: no significant cytotoxicity; ROS production after pretreatment [7]: reduced ROS production in a dose-dependent manner"
"O=C(NCc1c[nH]c2ccccc12)c1ccc2cccc(O)c2n1 [Compound 6d, N-((1H-indol-3-yl)methyl)-8-hydroxyquinoline-2-carboxamide]",19.2 ± 5.85,6.81 ± 1.13,2.32 ± 0.17,CNS+ (Compounds of high BBB permeation (CNS+) Pe>4.7),> 4.7,–
"COc1ccc2[nH]cc(CCNCc3ccc4cccc(O)c4n3)c2c1 [Compound 3b, 2-(((2-(5-methoxy-1H-indol-3-yl)ethyl)amino)methyl)quinolin-8-ol]",18.2 ± 2.02,–,3.25 ± 0.10,CNS+ (Compounds of high BBB permeation (CNS+) Pe>4.7),> 4.7,Papp [8]: 6.61 ± 0.22 ×10⁻⁶ cm/s
"Oc1c(I)cc(Cl)c2cccnc12 [CQ, clioquinol, reference compound]",30.8 ± 1.08,–,–,–,–,Disaggregation of Cu^2+-induced Aβ1-42 aggregation [9]: significantly disaggregated
COc1ccc2[nH]cc(CCNC(C)=O)c2c1 [Melatonin],39 ± 9.35,–,–,–,–,Disaggregation of Cu^2+-induced Aβ1-42 aggregation [9]: mild disaggregated effect; Inhibition of Cu^2+-induced Aβ1-42 aggregation [9]: weak inhibitory activity
"Oc1ccc2[nH]cc(CCNCc3ccc4cccc(O)c4n3)c2c1 [Compound 3c, 2-(((2-(5-hydroxy-1H-indol-3-yl)ethyl)amino)methyl)quinolin-8-ol]",40.2 ± 2.89,–,4.47 ± 0.18,CNS+ (Compounds of high BBB permeation (CNS+) Pe>4.7),> 4.7,Papp [8]: 4.81 ± 0.87 ×10⁻⁶ cm/s
"COc1cc(/C=C/C(=O)CC(=O)/C=C/c2ccc(O)c(OC)c2)ccc1O [Curcumin, reference compound]",52.9 ± 6.38,–,–,–,–,–
"O=C(NCCc1c[nH]c2ccccc12)c1ccc2cccc(O)c2n1 [Compound 6a, N-(2-(1H-indol-3-yl)ethyl)-8-hydroxyquinoline-2-carboxamide]",45.45 ± 0.41,7.71 ± 0.61,2.49 ± 0.22,CNS+ (Compounds of high BBB permeation (CNS+) Pe>4.7),> 4.7,–
CN1C(C(=O)Nc2ccccn2)=C(O)c2ccccc2S1(=O)=O [piroxicam],–,–,–,–,–,"Pe, Bibl [10]: 2.5 ×10⁻⁶ cm/s"
"Oc1cccc2ccc(CNCc3c[nH]c4ccccc34)nc12 [Compound 3d, 2-((((1H-indol-3-yl)methyl)amino)methyl)quinolin-8-ol]",20.5 ± 4.72,5.09 ± 1.32,2.60 ± 0.20,CNS+ (Compounds of high BBB permeation (CNS+) Pe>4.7),> 4.7,–
CN(C)CCCN1c2ccccc2Sc2ccccc21 [promazine],–,–,–,–,–,"Pe, Bibl [10]: 8.8 ×10⁻⁶ cm/s"
"CN(C)CCCN1c2ccccc2Sc2ccc(Cl)cc21 [Chlorpromazinne, chlorpromazine, reference compound]",–,6.63 ± 0.81,–,CNS+ (Compounds of high BBB permeation (CNS+) Pe>4.7),–,–
"COc1ccc2[nH]cc(CCNC(=O)c3ccc4cccc(O)c4n3)c2c1 [Compound 6b, 8-hydroxy-N-(2-(5-methoxy-1H-indol-3-yl)ethyl)quinoline-2-carboxamide]",63.2 ± 2.02,6.91 ± 0.92,2.76 ± 0.01,CNS+ (Compounds of high BBB permeation (CNS+) Pe>4.7),> 4.7,"Disaggregation of Cu^2+-induced Aβ1-42 aggregation [9]: significantly disaggregated; Inhibition of Cu^2+-induced Aβ1-42 aggregation [9]: distinct inhibitory effect; Metal-chelating property [2]: possess metal-chelating properties; Inflection point, concentration ratio of Cu^2+ to compound [2]: 0.5; Cytotoxicity ([4]; 5 μM): no cytotoxicity; Cytotoxicity ([4]; 10 μM): slight toxicity; Cytotoxicity [5]: no significant cytotoxicity; ROS production after pretreatment [7]: reduced ROS production in a dose-dependent manner"
"Oc1cccc2ccc(CNCCc3c[nH]c4ccccc34)nc12 [Compound 3a, 2-(((2-(1H-indol-3-yl)ethyl)amino)methyl)quinolin-8-ol]",27.1 ± 5.01,–,3.50 ± 0.12,CNS+ (Compounds of high BBB permeation (CNS+) Pe>4.7),> 4.7,Papp [8]: 8.08 ± 0.56 ×10⁻⁶ cm/s
"CN(CCc1c[nH]c2ccccc12)Cc1ccc2cccc(O)c2n1 [Compound 4, 2-(((2-(1H-indol-3-yl)ethyl)(methyl)amino)methyl)quinolin-8-ol]",52.5 ± 6.47,–,2.93 ± 0.15,CNS+ (Compounds of high BBB permeation (CNS+) Pe>4.7),> 4.7,Papp [8]: 9.87 ± 0.66 ×10⁻⁶ cm/s
